Where a SMILES comes first, the peptide text is derived from it.
Biological target: T1, Solute carrier family 15 member 1 (Homo sapiens, UniProt P46059)
T1 sequence (P46059 whole entry): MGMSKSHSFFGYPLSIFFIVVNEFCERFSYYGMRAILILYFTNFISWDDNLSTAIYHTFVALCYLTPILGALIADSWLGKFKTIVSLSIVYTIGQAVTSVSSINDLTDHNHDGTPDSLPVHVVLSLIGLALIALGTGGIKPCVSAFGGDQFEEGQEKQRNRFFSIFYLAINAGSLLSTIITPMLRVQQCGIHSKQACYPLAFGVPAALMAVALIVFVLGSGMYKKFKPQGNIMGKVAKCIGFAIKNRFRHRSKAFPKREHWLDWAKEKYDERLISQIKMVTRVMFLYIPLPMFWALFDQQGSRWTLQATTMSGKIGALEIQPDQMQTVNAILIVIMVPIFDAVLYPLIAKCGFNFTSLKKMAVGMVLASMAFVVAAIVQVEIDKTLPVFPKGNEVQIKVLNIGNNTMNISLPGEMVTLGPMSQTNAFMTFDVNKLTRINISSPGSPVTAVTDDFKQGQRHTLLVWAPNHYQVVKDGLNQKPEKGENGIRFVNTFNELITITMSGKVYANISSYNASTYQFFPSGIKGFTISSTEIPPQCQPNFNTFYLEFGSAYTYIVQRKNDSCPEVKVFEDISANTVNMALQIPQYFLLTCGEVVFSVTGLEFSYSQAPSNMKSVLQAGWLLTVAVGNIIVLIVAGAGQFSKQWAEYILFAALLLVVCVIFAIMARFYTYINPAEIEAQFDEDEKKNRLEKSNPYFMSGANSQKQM
Assay: TP_TRANSPORTER: inhibition of Gly-Sar uptake (Gly-Sar: 25000 uM) in PEPT1-expressing CHO cells
Type: functional, cell-based

| IC50 [µM] | SMILES |
| --- | --- |
| 63 | C[C@H](N)C(=O)N[C@@H](C)C(=O)O (H-Ala-Ala-OH) |
| 10000 | CC1(C)S[C@@H]2[C@H](NC(=O)[C@H](N)c3ccccc3)C(=O)N2[C@H]1C(=O)O [AMPICILLIN] |

| SMILES | IC50 [µM] |
| --- | --- |
| NCC(=O)NCC(=O)NCC(=O)O | 1400 |

From ChEMBL document CHEMBL2074121, “Human dipeptide transporter, hPEPT1, stably transfected into Chinese hamster ovary cells” (Pharm Res, 1996)
